Measured values: paper PMC6063448, “Antimicrobial activity of linear lipopeptides derived from BP100 towards plant pathogens” (PLoS ONE, 2018)

What was measured:
proteinase K = system: T1, proteinase K; test: Susceptibility to protease degradation; format: in vitro ADME; conditions: proteinase K (isolated protease) in TRIS buffer; 50 μg/mL peptide, 1 μg/mL proteinase K, 100 mM TRIS buffer pH 7.6, 25°C, 60 min; decrease of HPLC peak area (220 nm); read-out: Digestion with proteinase K (percentage of degraded peptide)
T1 construct: purchased Sigma-Aldrich Corporation, Spain
Procedure: Digestion of BP100 and of 16 selected lipopeptides was carried out by treating 50 μg/mL peptide with 1 μg/mL proteinase K (Sigma-Aldrich Corporation, Spain) in 100 mM TRIS buffer, pH 7.6, at 25°C. The peptide cleavage after 60 min was determined by HPLC using a Kromasil (4.6 × 40 mm; 3 μm particle size) C18 reverse-phase column. Linear gradients of 0.1% aqueous TFA and 0.1% TFA in CH3CN were run from 0.98:0.02 to 0:1 over 12 min with UV detection at 220 nm. Digestion was estimated as the percentage of degraded lipopeptide calculated from the decrease of the HPLC peak area of the native peptide.

tobacco leaves = test: Effect of peptide infiltration on tobacco leaves; format: in vivo; conditions: for Size of the lesions in infiltrated tobacco leaves (diameter): 250 μM, 100 μL infiltrated into mesophyll, measured after 48 h; for Reaction observed in the area of infiltration of tobacco leaves: in contrast to melittin
Procedure: BP100 and the 36 lipopeptides were evaluated for their effect upon infiltration on tobacco leaves as described previously. Peptide solutions of 50, 150 and 250 μM were infiltrated (100 μL) into the mesophylls of fully expanded tobacco leaves. Infiltrations were carried out in a single leaf, and for each peptide and dose, at least three leaves randomly distributed in different plants were inoculated. Control infiltrations with water (negative control) or melittin (positive control) at the same molar concentration were performed. The appearance of symptoms on the leaves was followed for 48 h after infiltration and measured as a lesion diameter.

Row | Compound | metabolised at 1 h, 50 μg/mL (proteinase K) | Size of the lesions in infiltrated tobacco leaves (diameter) (tobacco leaves) | Reaction observed in the area of infiltration of tobacco leaves (tobacco leaves)
1 | CC[C@H](C)[C@H](NC(=O)[C@H](CCCCN)NC(=O)[C@H](CCCCN)NC(=O)[C@H](Cc1ccccc1)NC(=O)[C@H](CC(C)C)NC(=O)[C@H](CCCCN)NC(=O)[C@@H](N)CCCCN)C(=O)N[C@@H](CC(C)C)C(=O)N[C@@H](CCCCN)C(=O)N[C@@H](Cc1ccc(O)cc1)C(=O)N[C@@H](CC(C)C)C(N)=O [BP100, H-Lys-Lys-Leu-Phe-Lys-Lys-Ile-Leu-Lys-Tyr-Leu-NH2] | 24% | – | –
2 | CCCCCC(=O)NCCCC[C@H](NC(=O)[C@H](Cc1ccc(O)cc1)NC(=O)[C@H](CCCCN)NC(=O)[C@H](CC(C)C)NC(=O)[C@@H](NC(=O)[C@H](CCCCN)NC(=O)[C@H](CCCCN)NC(=O)[C@H](Cc1ccccc1)NC(=O)[C@H](CC(C)C)NC(=O)[C@H](CCCCN)NC(=O)[C@H](CCCCN)NC(C)=O)[C@@H](C)CC)C(N)=O [BP378, Ac-KKLFKKILKYK(COC5H11)-NH2] | 45% | 13.2 ± 4.7 mm | not a typical necrosis
3 | CCCC(=O)NCCCC[C@H](NC(=O)[C@H](CCCCN)NC(C)=O)C(=O)N[C@@H](CC(C)C)C(=O)N[C@@H](Cc1ccccc1)C(=O)N[C@@H](CCCCN)C(=O)N[C@@H](CCCCN)C(=O)N[C@H](C(=O)N[C@@H](CC(C)C)C(=O)N[C@@H](CCCCN)C(=O)N[C@@H](Cc1ccc(O)cc1)C(=O)N[C@@H](CC(C)C)C(N)=O)[C@@H](C)CC [BP381, Ac-KK(COC3H7)LFKKILKYL-NH2] | 53% | 10.8 ± 1.9 mm | –
4 | CCCC(=O)NCCCC[C@H](NC(=O)[C@@H](NC(=O)[C@H](CCCCN)NC(=O)[C@H](CCCCN)NC(=O)[C@H](Cc1ccccc1)NC(=O)[C@H](CC(C)C)NC(=O)[C@H](CCCCN)NC(=O)[C@H](CCCCN)NC(C)=O)[C@@H](C)CC)C(=O)N[C@@H](CCCCN)C(=O)N[C@@H](Cc1ccc(O)cc1)C(=O)N[C@@H](CC(C)C)C(N)=O [BP387, Ac-KKLFKKIK(COC3H7)KYL-NH2] | 15% | 9.2 ± 0.96 mm | –
5 | CCCC(=O)NCCCC[C@H](NC(=O)[C@H](CCCCN)NC(=O)[C@H](CC(C)C)NC(=O)[C@@H](NC(=O)[C@H](CCCCN)NC(=O)[C@H](CCCCN)NC(=O)[C@H](Cc1ccccc1)NC(=O)[C@H](CC(C)C)NC(=O)[C@H](CCCCN)NC(=O)[C@H](CCCCN)NC(C)=O)[C@@H](C)CC)C(=O)N[C@@H](CC(C)C)C(N)=O [BP389, Ac-KKLFKKILKK(COC3H7)L-NH2] | 29% | 9.0 ± 2.9 mm | –
6 | CCCCCCCCCCCC(=O)NCCCC[C@H](NC(=O)[C@H](CC(C)C)NC(=O)[C@@H](NC(=O)[C@H](CCCCN)NC(=O)[C@H](CCCCN)NC(=O)[C@H](Cc1ccccc1)NC(=O)[C@H](CC(C)C)NC(=O)[C@H](CCCCN)NC(=O)[C@H](CCCCN)NC(C)=O)[C@@H](C)CC)C(=O)N[C@@H](Cc1ccc(O)cc1)C(=O)N[C@@H](CC(C)C)C(N)=O [BP400, Ac-KKLFKKILK(COC11H23)YL-NH2] | – | – | not a typical necrosis
